# Earlier results in US12246054B2, “Method of treating diseases” (Amryt Endo, Inc., priority 2015, dated 2025).
# Tests used:
# [1] = in vivo
# [2] = system: idiopathic intracranial hypertension; settings: IIH patients; injections
smiles,measurement,setting,value
C[C@@H](O)[C@@H]1NC(=O)[C@H](CCCCN)NC(=O)[C@@H](Cc2c[nH]c3ccccc23)NC(=O)[C@H](Cc2ccccc2)NC(=O)[C@@H](NC(=O)[C@H](N)Cc2ccccc2)CSSC[C@@H](C(=O)N[C@H](CO)[C@@H](C)O)NC1=O [octreotide],acute rebound GH hypersecretion,[1],absence of acute rebound GH hypersecretion
same,circulating half-life,[1],2 h
same,Patients in whom headache and papilledema subsided and visual disturbances improved (response rate),[2],about 90%
